Consider 49 compounds from patent publication US20250304537A1 (Repare Therapeutics Inc., priority 2022, published 2025).

The target in assay [1] is recombinant human Myt1 (full length PKMYT1) (Homo sapiens (Human), UniProt Q99640). As to the kind of experiment: Recombinant human Myt1 kinase assay (ADP-Glo). The class given is biochemical. Conditions: 10 μM ATP. The method in brief:
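ADP-Glo luminescence measured ATP hydrolysis by recombinant full-length PKMYT1 (18 nM) after 60 min at 30 °C with 10 μM ATP. Compounds in 0.5% DMSO were added to the enzyme 15 min before ATP, at 22 °C, in HEPES/MgCl2/MnCl2 buffer. IC50 and percent maximal inhibition were derived.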

Assay [2] relates to PKMYT1 (CDK1 pThr14) in FUOV1 cells. As to the kind of experiment: PKMYT1 cell-based activity assay, CDK1 pThr14 AlphaLISA in FUOV1 cells. The note with it: 2 h incubation, read-out: FUOV-1 CDK1 pThr14 IC50. The method in brief:
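IC50 was derived from AlphaLISA signal (excitation 680 nm, emission 615 nm) for phospho-Thr14 CDK1 in lysates. The detection antibodies were rabbit anti-pThr14 and mouse anti-total CDK1, each at 5 nM. FUOV1 ovarian cells were exposed to compound for 2 hours before lysis.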

Like-named read-outs stand apart in the source and are kept apart here.

recombinant human Myt1 (full length PKMYT1), sequence (Q99640 whole entry): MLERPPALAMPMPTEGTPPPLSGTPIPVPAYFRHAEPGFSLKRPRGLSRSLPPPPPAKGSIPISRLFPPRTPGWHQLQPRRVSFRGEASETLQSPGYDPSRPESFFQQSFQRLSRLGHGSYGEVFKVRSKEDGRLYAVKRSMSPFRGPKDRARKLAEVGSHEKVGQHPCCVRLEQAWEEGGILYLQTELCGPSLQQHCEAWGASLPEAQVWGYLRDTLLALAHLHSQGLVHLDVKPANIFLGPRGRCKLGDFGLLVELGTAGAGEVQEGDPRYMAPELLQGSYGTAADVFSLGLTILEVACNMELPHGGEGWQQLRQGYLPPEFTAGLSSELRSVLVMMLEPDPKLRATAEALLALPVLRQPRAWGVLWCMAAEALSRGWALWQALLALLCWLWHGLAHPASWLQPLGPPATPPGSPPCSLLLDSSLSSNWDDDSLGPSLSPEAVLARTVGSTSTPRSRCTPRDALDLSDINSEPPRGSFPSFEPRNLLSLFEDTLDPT

Turning to `COc1cc(C)cc(-c2nc(C(N)=O)c(N)c(-c3c(C)ccc4[nH]ncc34)n2)c1` [Compound 143], the IC50 was determined as 0.023 µM in assay [1] and 1.47 µM in assay [2] (2 h).

Take `Cc1ccc2[nH]ncc2c1-c1nc(-c2ccc(C(=O)O)cc2)nc(C(N)=O)c1N` [Compound 146]: the IC50 in assay [1] is 0.023 µM; in assay [2] (2 h), over 10 µM.

As for `Cc1ccc2[nH]ncc2c1-c1cc(-c2ccnc(OCC(F)(F)F)n2)nc(C(N)=O)c1N` [Compound 159], the IC50 in assay [1] came to 0.006 µM; in assay [2], 0.268 µM.

`Cc1ccc2[nH]ncc2c1-c1cc(-c2ccnc(OC(C)C)n2)nc(C(N)=O)c1N` [Compound 160, 3-amino-6-(2-isopropoxypyrimidin-4-yl)-4-(5-methyl-1H-indazol-4-yl)picolinamide]: the IC50 worked out at 0.007 µM in assay [1] and 0.388 µM in assay [2] (2 h).

On to `Cc1ccc2[nH]ncc2c1-c1cc(-c2ccnc(OC3COC3)n2)nc(C(N)=O)c1N` [Compound 161], for which the IC50 is 0.007 µM in assay [1] and 0.122 µM in assay [2] (2 h).

As to `Cc1ccc2[nH]ncc2c1-c1cc(-c2ccnc(NC3CC3)n2)nc(C(N)=O)c1N` [Compound 163], the IC50 in assay [1] is 0.011 µM; in assay [2] (2 h), 0.436 µM.

Take `Cc1ccc2[nH]ncc2c1-c1cc(-c2ccnc(OCc3cccnc3)n2)nc(C(N)=O)c1N` [Compound 164]: the values for the IC50 in assay [1] and in assay [2] (2 h) were 0.014 µM and 0.473 µM, respectively.

In the case of `COCCOc1nccc(-c2cc(-c3c(C)ccc4[nH]ncc34)c(N)c(C(N)=O)n2)n1` [Compound 166], the IC50 worked out at 0.003 µM in assay [1] and 0.109 µM in assay [2] (2 h).

Take `CSc1nccc(-c2cc(-c3c(C)ccc4[nH]ncc34)c(N)c(C(N)=O)n2)n1` [Compound 167]: the values for the IC50 in assay [1] and in assay [2] (2 h) were 0.008 µM and 0.414 µM, respectively.

As to `Cc1ccc2[nH]ncc2c1-c1cc(-c2ccnc(S(C)(=O)=O)n2)nc(C(N)=O)c1N` [Compound 168], the IC50 in assay [1] worked out at 0.029 µM; in assay [2] (2 h), 7.59 µM.

Consider `Cc1ccc2[nH]ncc2c1-c1cc(-c2ccnc(OC3CCOCC3)n2)nc(C(N)=O)c1N` [Compound 169], for which the IC50 in assay [1] came to 0.008 µM; in assay [2] (2 h), 0.12 µM.

On to `Cc1ccc2[nH]ncc2c1-c1cc(-c2ccnc(OC3CCCC3)n2)nc(C(N)=O)c1N` [Compound 170], for which the IC50 in assay [1] is 0.023 µM; in assay [2] (2 h), 1.1 µM.

As to `Cc1ccc2[nH]ncc2c1-c1cc(-c2ccnc(Oc3ccccc3)n2)nc(C(N)=O)c1N` [Compound 173], the IC50 was determined as 0.006 µM in assay [1] and 0.278 µM in assay [2] (2 h).

Regarding `Cc1ccc2[nH]ncc2c1-c1cc(-c2ccnc(N3CCCC3)n2)nc(C(N)=O)c1N` [Compound 174], the IC50 in assay [1] came to 0.01 µM; in assay [2] (2 h), 0.939 µM.

Regarding `Cc1ccc2[nH]ncc2c1-c1cc(-c2ccnc(Sc3ccccc3)n2)nc(C(N)=O)c1N` [Compound 177, 3-amino-4-(5-methyl-1H-indazol-4-yl)-6-(2-(phenylthio)pyrimidin-4-yl)picolinamide], the IC50 came out at 0.013 µM in assay [1] and 0.346 µM in assay [2] (2 h).

As for `Cc1ccc2[nH]ncc2c1-c1cc(-c2cccc(OCc3cccnc3)n2)nc(C(N)=O)c1N` [Compound 179], the IC50 in assay [1] came out at 0.007 µM; in assay [2] (2 h), 0.423 µM.

For the compound `Cc1ccc2[nH]ncc2c1-c1cc(-c2cccc(OCCN3CCCC3)n2)nc(C(N)=O)c1N` [Compound 180], the values for the IC50 in assay [1] and in assay [2] (2 h) were 0.01 µM and 0.099 µM, respectively.

As to `Cc1ccc2[nH]ncc2c1-c1cc(-c2cccc(Oc3cccc(N4CCCC4)c3)n2)nc(C(N)=O)c1N` [Compound 182], the IC50 stood at 0.015 µM in assay [1] and 1.6 µM in assay [2] (2 h).

As to `Cc1ccc2[nH]ncc2c1-c1cc(-c2cccc(OCCN3CCNCC3)n2)nc(C(N)=O)c1N` [Compound 183], the values for the IC50 in assay [1] and in assay [2] (2 h) were 0.013 µM and 0.281 µM, respectively.

For the compound `Cc1ccc2[nH]ncc2c1-c1cc(-c2cccc(OCc3ncccn3)n2)nc(C(N)=O)c1N` [Compound 184], the IC50 was 0.006 µM in assay [1] and 0.051 µM in assay [2] (2 h).

Take `Cc1ccc2[nH]ncc2c1-c1cc(-c2cccc(OCCN3CCOCC3)n2)nc(C(N)=O)c1N` [Compound 185]: the figures for the IC50 in assay [1] and in assay [2] (2 h) were 0.007 µM and 0.369 µM, respectively.

For the compound `Cc1ccc2[nH]ncc2c1-c1cc(-c2ccc(-c3nccs3)nc2)nc(C(N)=O)c1N` [Compound 186], the half-maximal inhibitory concentration (IC50) was 0.047 µM in assay [1] and 1.69 µM in assay [2] (2 h).

For `Cc1ccc(O)c(C)c1-c1cc(C(=O)Nc2cccnc2)nc(C(N)=O)c1N` [Compound 188, 5-amino-4-(3-hydroxy-2,6-dimethylphenyl)-N2-(pyridin-3-yl)pyridine-2,6-dicarboxamide], the IC50 in assay [1] was found to be 0.008 µM; in assay [2] (2 h) it was 0.266 µM.

As to `Cc1ccc2[nH]ncc2c1-c1cc(-c2ccnc(N)c2)nc(C(N)=O)c1N` [Compound 189], the results for the IC50 in assay [1] and in assay [2] (2 h) were 0.021 µM and 1.22 µM, respectively.

Consider `Cc1ccc2[nH]ncc2c1-c1cc(-c2cnccn2)nc(C(N)=O)c1N` [Compound 190], for which the IC50 is 0.02 µM in assay [1] and 0.86 µM in assay [2] (2 h).

Consider `Cc1ccc2[nH]ncc2c1-c1cc(-c2cccnn2)nc(C(N)=O)c1N` [Compound 191], for which the IC50 in assay [1] came to 0.042 µM; in assay [2] (2 h), 0.39 µM.

For `Cc1ccc2[nH]ncc2c1-c1cc(-c2ccnc(OC3CNC3)n2)nc(C(N)=O)c1N` [Compound 194], the IC50 in assay [1] was 0.01 µM; in assay [2] (2 h), 0.476 µM.

Regarding `COCCCOc1nccc(-c2cc(-c3c(C)ccc4[nH]ncc34)c(N)c(C(N)=O)n2)n1` [Compound 197], the values for the IC50 in assay [1] and in assay [2] (2 h) were 0.012 µM and 0.267 µM, respectively.

As to `Cc1ccc2[nH]ncc2c1-c1cc(-c2ccnc(N3CCOCC3)n2)nc(C(N)=O)c1N` [Compound 198], the IC50 in assay [1] amounted to 0.009 µM; in assay [2] (2 h) it was 0.97 µM.

Take `Cc1ccc2[nH]ncc2c1-c1cc(-c2ccnc(Oc3cccnc3)n2)nc(C(N)=O)c1N` [Compound 199]: the IC50 came to 0.006 µM in assay [1] and 0.137 µM in assay [2] (2 h).

Take `Cc1ccc2[nH]ncc2c1-c1cc(-c2ccnc(Nc3ccncc3)n2)nc(C(N)=O)c1N` [Compound 200]: the IC50 came out at 0.011 µM in assay [1] and 0.154 µM in assay [2] (2 h).

Turning to `COC[C@H](C)Oc1nccc(-c2cc(-c3c(C)ccc4[nH]ncc34)c(N)c(C(N)=O)n2)n1` [Compound 203], the IC50 is 0.011 µM in assay [1] and 0.332 µM in assay [2] (2 h).

As to `COC[C@@H](C)Oc1nccc(-c2cc(-c3c(C)ccc4[nH]ncc34)c(N)c(C(N)=O)n2)n1` [Compound 204], the IC50 is 0.006 µM in assay [1] and 0.205 µM in assay [2] (2 h).

As to `Cc1ccc2[nH]ncc2c1-c1cc(-c2ccnc(OCCOC3CC3)n2)nc(C(N)=O)c1N` [Compound 205], the IC50 in assay [1] turned out to be 0.006 µM; in assay [2] (2 h), 0.181 µM.

Take `COCC(Oc1nccc(-c2cc(-c3c(C)ccc4[nH]ncc34)c(N)c(C(N)=O)n2)n1)c1ccccc1` (centres unmarked) [Compound 206]: the values for the IC50 in assay [1] and in assay [2] (2 h) were 0.008 µM and 0.554 µM, respectively.

`COCC(COC)Oc1nccc(-c2cc(-c3c(C)ccc4[nH]ncc34)c(N)c(C(N)=O)n2)n1` [Compound 207]: the IC50 in assay [1] is 0.009 µM; in assay [2] (2 h), 0.144 µM.

Turning to `Cc1ccc2[nH]ncc2c1-c1cc(-c2ccnc(O[C@H]3CO[C@H]4OCC[C@H]43)n2)nc(C(N)=O)c1N` [Compound 208], the IC50 in assay [1] was found to be 0.006 µM; in assay [2] (2 h), 0.106 µM.

`CNCCOc1nccc(-c2cc(-c3c(C)ccc4[nH]ncc34)c(N)c(C(N)=O)n2)n1` [Compound 210]: the IC50 in assay [1] turned out to be 0.01 µM; in assay [2] (2 h) it was 0.335 µM.

For the compound `Cc1ccc2[nH]ncc2c1-c1cc(-c2ccnc(OCC3CCCO3)n2)nc(C(N)=O)c1N` (centres unmarked) [Compound 211], the IC50 is 0.007 µM in assay [1] and 0.184 µM in assay [2] (2 h).

Regarding `Cc1ccc2[nH]ncc2c1-c1cc(-c2ccnc(OC3CCOC3)n2)nc(C(N)=O)c1N` (centres unmarked) [Compound 212], the results for the IC50 in assay [1] and in assay [2] (2 h) were 0.012 µM and 0.192 µM, respectively.

In the case of `COCCNc1nccc(-c2cc(-c3c(C)ccc4[nH]ncc34)c(N)c(C(N)=O)n2)n1` [Compound 214, 3-amino-6-(2-((2-methoxyethyl)amino)pyrimidin-4-yl)-4-(5-methyl-1H-indazol-4-yl)picolinamide], the IC50 in assay [1] was 0.005 µM; in assay [2] (2 h), 0.444 µM.

For the compound `Cc1ccc2[nH]ncc2c1-c1cc(-c2ccnc(OC3(C)COC3)n2)nc(C(N)=O)c1N` [Compound 220], the results for the IC50 in assay [1] and in assay [2] (2 h) were 0.004 µM and 0.15 µM, respectively.

Take `CCC(COC)Oc1nccc(-c2cc(-c3c(C)ccc4[nH]ncc34)c(N)c(C(N)=O)n2)n1` (centres unmarked) [Compound 221]: the IC50 in assay [1] came to 0.007 µM; in assay [2] (2 h) it was 0.27 µM.

`Cc1ccc2[nH]ncc2c1-c1cc(-c2csc(OC3COC3)n2)nc(C(N)=O)c1N` [Compound 224]: the 50% inhibitory concentration (IC50) amounted to 0.04 µM in assay [1] and 0.252 µM in assay [2] (2 h).

Consider `Cc1ccc2[nH]ncc2c1-c1cc(-c2cccc(OCc3ccccn3)n2)nc(C(N)=O)c1N` [Compound 228], for which the IC50 came to 0.006 µM in assay [1] and 0.387 µM in assay [2] (2 h).

Turning to `Cc1ccc2[nH]ncc2c1-c1cc(-c2ccnc(OCc3ccccn3)n2)nc(C(N)=O)c1N` [Compound 229], the IC50 in assay [1] is 0.004 µM; in assay [2] (2 h), 0.134 µM.

Regarding `Cc1ccc2[nH]ncc2c1-c1cc(-c2ccnc(OCc3ccncc3)n2)nc(C(N)=O)c1N` [Compound 230], the IC50 in assay [1] is 0.004 µM; in assay [2] (2 h), 0.208 µM.

In the case of `Cc1ccc2[nH]ncc2c1-c1cc(-c2ccnc(OCc3ncccn3)n2)nc(C(N)=O)c1N` [Compound 235], the IC50 was found to be 0.007 µM in assay [1] and 0.039 µM in assay [2] (2 h).

As for `Cc1ccc2[nH]ncc2c1-c1cc(-c2ccnc(OCCc3ccccn3)n2)nc(C(N)=O)c1N` [Compound 239], the IC50 in assay [1] is 0.004 µM; in assay [2] (2 h) it was 0.903 µM.
